Data published in patent US9000155B2, “Cyclic triazo sodium channel blockers” (University of Greenwich, priority 2009, dated 2015).
“And” between values parts separate entries of the source, which are not always exact repeats. Identical values can stand only once. Counter-ions that a name gives are not always drawn. Like-named read-outs stand apart in the source and are kept apart here.

How the values were obtained:
hERG = target: T1, hERG (Homo sapiens, UniProt Q12809); test: Inhibition of binding of [3H]astemizole to HEK-293 cells expressing hERG; conditions: for inhibition at 10 µM: human, HEK-293 cells expressing human recombinant hERG, probe [3H]astemizole
T1 construct: host or cells: HEK-293
Procedure: Another common side-effect marker is inhibition of human Ether-a-go-go Related Gene potassium (hERG) potassium channel (Inward rectifying, IKr) activity which can be fatal due to heart failure brought about by development of long QT syndrome. A useful preliminary screen to assess potential to affect this channel is assessed by measurement of inhibition of the binding of [3H]astemizole to cell membranes expressing hERG. Selected compounds are tested for this activity by measurement of inhibition @ 10 μM.
Compounds were sent to MDS Pharma for measurement of their inhibition @ 10 μM concentration of the binding of [^3H]astemizole to HEK-293 cells expressing human recombinant hERG.

Sodium Channel, Site 2 = test: Inhibition of binding of [3H]BTX-B to Wistar rat brain
[1] = system: maximal electroshock-induced tonic convulsions; test: Rat MES (Maximal ElectroShock) anticonvulsant test; assay type: in vivo; conditions: for MES Results (% protection): n = 5 rats; for ED50: Rattus norvegicus, po
Procedure: Male Wistar rats provided by BioLasco Taiwan (under Charles River Laboratories Technology Licensee) were used. Space allocation for 5 animals was 45×23×21 cm. Animals were housed in animal cages and maintained in a controlled temperature (21-23° C.) and humidity (50%-70%) environment with 12 hours light/dark cycles for at least three days in MDS Pharma Services—Taiwan Laboratory prior to use. Free access to standard lab chow for rats [MF-18 (Oriental Yeast Co., Ltd. Japan)] and reverse osmosis (RO) water were granted ad libitum. All aspects of this work including housing, experimentation and disposal of animals were performed in general accordance with the Guide for the Care and Use of Laboratory Animals (National Academy Press, Washington, D.C., 1996).
Test compounds were suspended/dissolved in 2% Tween 80 and dosed orally at a dose volume of 10 ml/Kg to groups of 5 Wistar male rats weighing 180+/−20 g, one hour before maximal electroshock (MES, 60 Hz sine wave, 150 mA, 200 msec duration) was applied through corneal electrodes. Appearance of maximal electroshock-induced tonic convulsions (MES) was determined for each animal. 50 percent or more (50%) inhibition of tonic convulsions by test substance indicates significant anticonvulsant activity.
Test substances (CEN-216, CEN-145, CEN-148, CEN-152 and CEN-154) at 14, 42 or 100 mg/kg were administered orally to groups of 5 Wistar derived male rats weighing 180±20 g.
In rat model of epilepsy (Maximal ElectroShock—MES), in which compounds were dosed orally one hour prior to ‘shock’, the ED50 (effective dose to protect 50% of rats from limb extension etc.) for CEN-216 is approx 9 mg/kg free base.

[2] = system: 0.4 mm slices of rat hippocampus; assay type: cell-based
sodium channel = assay type: biochemical, rat; conditions: read-out: [14C]guanidine flux Mean IC50
Description: The screening strategy is designed to select compounds with appropriate sodium channel blocking activity and low side effect liability. To this end all compounds are processed through the primary sodium channel assay (veratrine-evoked uptake of [^14C]guanidine into rat forebrain synaptosomes) and IC50 values computed from generated concentration-effect curves.
Following killing of animals by stunning and decapitation, the forebrain (whole brain less cerebellum/medulla) was rapidly dissected and transferred to a weighed tube containing ice-cold 0.25M sucrose.
Synaptosomes (heavy and light mitochondrial fraction containing synaptosomes) were prepared by transferring the forebrain (of known wet weight) to a glass Potter vessel to which 9 volumes ice-cold 0.25M sucrose had been added and homogenising, using a teflon pestle, by 8 ‘up and down strokes’ of a Braun Potter S motor driven homogeniser set to 900 rpm. The resulting homogenate was centrifuged at 1036×g at 4° for 10 min and the supernatant collected. The remaining pellet was resuspended, as above, in fresh ice-cold 0.25M sucrose and the centrifugation step repeated. The supernatant fractions were pooled and centrifuged at 40,000×g (average) at 4° for 15 min and the resulting pellet resuspended in the appropriate assay buffer at a concentration of 20-25 mg wet weight per ml appropriate assay buffer. […]

Microsome stability = assay type: in vitro ADME, human; conditions: 1 μM
Procedure: Compounds were sent to BioFocus for measurement of their stability @ 1 μM concentration following incubation with rat liver microsomes for 40 minutes @ 37°.

L-Type Calcium Channels = test: L-type calcium channel binding ([3H]nitrendipine, rat cerebral cortex membranes)
Description: Compounds were sent to MDS Pharma for measurement of their inhibition @ […] of the binding of [^3H]nitrendipine to rat cerebral cortex membranes.

[3] = system: maximal electroshock (MES); test: Mouse MES model of epilepsy; assay type: in vivo; conditions: 72 mg/Kg (free base) po
Procedure: In mouse model of epilepsy (MES), compounds CEN-079 and CEN-216 were dosed orally (100 and 72 mg/kg free base respectively) @ 1 h, 6 h and 24 h prior to ‘shock).

[4] = extrapolated, read-out: hERG ([3H]astemizole) (extrapolated IC50 μM)
[5] = hERG IC50 (μM) (extrapolated from 10 μM inh'n), extrapolated from 10 μM inhibition, slope assumed 1.0
[6] = extrapolated, read-out: Nach ([3H]BTX-B) (extrapolated IC50 μM)
[7] = read-out: [3H]BTX-B binding Extrapolated IC50
[8] = 1 h, read-out: Rat MES ED50 (very approx, from single 100 mg/kg dose), free base, one hour prior to shock

T1 sequence (Q12809 whole entry): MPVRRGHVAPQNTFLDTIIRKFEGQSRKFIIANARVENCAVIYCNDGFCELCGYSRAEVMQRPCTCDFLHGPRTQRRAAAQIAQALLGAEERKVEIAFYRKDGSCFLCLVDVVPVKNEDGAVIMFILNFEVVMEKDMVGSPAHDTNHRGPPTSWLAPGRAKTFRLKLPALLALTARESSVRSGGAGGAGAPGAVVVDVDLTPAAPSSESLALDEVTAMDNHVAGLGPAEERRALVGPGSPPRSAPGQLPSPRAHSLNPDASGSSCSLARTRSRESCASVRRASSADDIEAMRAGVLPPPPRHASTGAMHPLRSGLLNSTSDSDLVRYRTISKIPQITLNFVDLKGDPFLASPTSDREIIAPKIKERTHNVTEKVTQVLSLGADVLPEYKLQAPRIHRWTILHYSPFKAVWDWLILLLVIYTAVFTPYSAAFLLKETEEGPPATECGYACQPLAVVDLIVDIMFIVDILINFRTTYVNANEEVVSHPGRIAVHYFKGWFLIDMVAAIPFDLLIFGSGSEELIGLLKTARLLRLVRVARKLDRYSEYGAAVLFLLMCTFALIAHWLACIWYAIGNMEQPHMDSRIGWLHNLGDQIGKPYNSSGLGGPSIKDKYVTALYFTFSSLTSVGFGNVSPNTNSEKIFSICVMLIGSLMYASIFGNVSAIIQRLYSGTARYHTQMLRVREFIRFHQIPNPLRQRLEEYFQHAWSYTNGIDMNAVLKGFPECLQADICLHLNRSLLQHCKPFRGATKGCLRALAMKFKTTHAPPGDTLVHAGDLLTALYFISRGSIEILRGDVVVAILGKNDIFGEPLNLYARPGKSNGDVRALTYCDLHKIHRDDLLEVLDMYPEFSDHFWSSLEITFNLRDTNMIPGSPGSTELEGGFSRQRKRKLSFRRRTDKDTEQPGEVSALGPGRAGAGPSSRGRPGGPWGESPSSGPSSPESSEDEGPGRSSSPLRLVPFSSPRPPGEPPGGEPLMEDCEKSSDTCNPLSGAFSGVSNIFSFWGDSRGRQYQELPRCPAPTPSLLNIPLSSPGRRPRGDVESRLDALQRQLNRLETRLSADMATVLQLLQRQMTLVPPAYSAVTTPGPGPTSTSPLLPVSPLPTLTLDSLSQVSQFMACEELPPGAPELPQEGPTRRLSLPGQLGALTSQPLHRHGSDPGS

N=c1nc(N)c(-c2cccc(Cl)c2Cl)nn1CC(F)(F)C(F)(F)F [CEN-217]
IC50 (hERG; [4]): 26 µM
IC50 (hERG; [5]): 25.7 µM
inhibition at 10 µM (hERG): 28%
[3H]BTX-B binding % inhibition (@ 10 μM) (Sodium Channel, Site 2): 105%
IC50 (Sodium Channel, Site 2; [6]): < 0.5 µM
IC50 (Sodium Channel, Site 2; [7]): < 0.5 µM
Rat MES (anticonvulsant in vivo) % protection ([1]; 100 mg/Kg (free base) po): 60% and 60 @ 100%
MES Results (% protection) ([1]; 100 mg/kg po): 60%
ED50 [1, 8]: ~80 mg/kg

N=c1nc(N)c(-c2cccc(Cl)c2Cl)nn1CC(F)(F)C(F)F [CEN-218]
IC50 (hERG; [4]): 40 µM
IC50 (hERG; [5]): 40 µM
inhibition at 10 µM (hERG): 20%
[3H]BTX-B binding % inhibition (@ 10 μM) (Sodium Channel, Site 2): 108%
IC50 (Sodium Channel, Site 2; [6]): < 0.5 µM
IC50 (Sodium Channel, Site 2; [7]): < 0.5 µM
Rat MES (anticonvulsant in vivo) % protection ([1]; 100 mg/Kg (free base) po): 40 @ 100%
Rat MES (anticonvulsant in vivo) % protection ([1]; 100 mg/Kg (free base) po, listed as 218): 40%
MES Results (% protection) ([1]; 100 mg/kg po): 40%
ED50 [1, 8]: ~120 mg/kg

O=C1NC(=O)C(c2ccccc2)(c2ccccc2)N1 [DiPhenylHydantoin, Diphenylhydantoin sodium salt, reference compound]
% protection (v 1 μM TTX) (mean ± sem) [2]: 48%
MES Results (% protection) ([1]; 100 mg/kg po): 80%

NC1=N[C@H](O)[C@H]2[C@H]3O[C@]4(O)O[C@@H]([C@@H](O)[C@@]2(N1)[C@@H]4O)[C@]3(O)CO [TTX, tetrodotoxin]
% protection (v 1 μM TTX) (mean ± sem) [2]: 100%

N=c1nc(N)c(-c2cc(Cl)cc(Cl)c2Cl)nn1CC(Cl)(Cl)Cl [CEN-248]
[3H]BTX-B binding % inhibition (@ 10 μM) (Sodium Channel, Site 2): 27%
IC50 (Sodium Channel, Site 2; [6]): 27 µM
IC50 (Sodium Channel, Site 2; [7]): 27 µM
Rat MES (anticonvulsant in vivo) % protection ([1]; 30 mg/Kg (free base) po): 100% protection @ 30
MES Results (% protection) ([1]; 30 mg/kg po): 100%

Nc1nnc(-c2cccc(Cl)c2Cl)c(N)n1 [CEN-1, 3,5-Diamino-6-(2,3-dichlorophenyl)-1,2,4-triazine, reference compound]
IC50 (sodium channel): 219 µM
Microsome stability (human) % metabolized (40 min incubation 37°) (Microsome stability): 20%
MES Results (% protection) ([1]; 3 mg/kg po): 60%
MES Results (% protection) ([1]; 10 mg/kg po): 100%
MES Results (% protection) ([1]; 25 mg/kg po): 100%

N=c1nc(N)c(-c2cccc(Cl)c2Cl)nn1CC(Cl)(Cl)Cl [CEN-216, 5(3)-Amino-6-(2,3-dichlorophenyl)-2,3(2,5)-dihydro-3(5)-imino-2-(2,2,2-trichloroethyl)-1,2,4-triazine trifluoromethanesulphonate]
IC50 (hERG; [4]): 50 µM
IC50 (hERG; [5]): 73.3 µM
inhibition at 10 µM (hERG): 12%
L-type Ca2+ % inhibition @ 10 μM (L-Type Calcium Channels; 10 μM): 27%
IC50 (L-Type Calcium Channels; extrapolated, read-out: extrapolated IC50 in L-type Calcium (phenylalkylamine site) binding assay): 27 µM
IC50 (L-Type Calcium Channels; read-out: L-type Ca2+ IC50 (μM) (extrapolated from 10 μM inh'n), extrapolated from 10 μM inhibition, slope assumed 1.0): 27 µM
Microsome stability (human) % metabolized (40 min incubation 37°) (Microsome stability): 0%
[3H]BTX-B binding % inhibition (@ 10 μM) (Sodium Channel, Site 2): 42%
IC50 (Sodium Channel, Site 2; [6]): 20 µM
IC50 (Sodium Channel, Site 2; [7]): 13.8 µM
MES Results (% protection) ([1]; 1 mg/kg po): 0%
MES Results (% protection) ([1]; 3 mg/kg po): 0%
Rat MES (anticonvulsant in vivo) % protection ([1]; 10 mg/Kg (free base) po): 80%
MES Results (% protection) ([1]; 10 mg/kg po): 80%
MES Results (% protection) ([1]; 30 mg/kg po): 100%
MES Results (% protection) ([1]; 100 mg/kg po): 100%
ED50 ([1]; 1 h, free base, dosed orally one hour prior to shock, read-out: Rat MES ED50 (effective dose to protect 50% of rats)): ~9 mg/kg
ED50 ([1]; read-out: Rat MES ED50): 9 mg/kg
duration of action following po dose in mouse [3]: long duration of action
Mouse MES % protection ([3]; 1 h prior to shock): 100%
Mouse MES % protection ([3]; 6 h prior to shock): 100%
Mouse MES % protection ([3]; 24 h prior to shock): 100%
